{"source": "patent US20210139993A1", "about": "“METHOD FOR PREDICTING SURVIVAL IN CHILDREN WITH ACUTE LYMPHOBLASTIC LEUKEMIA” (UNIVERSITAT AUTONOMA DE BARCELONA, priority 2017, published 2021)", "tested_on": "childhood ALL patients with adverse cytogenetics harboring t(9; 22)", "test": "Kaplan-Meier survival of childhood ALL patients by cytogenetic risk group", "assay_type": "in vivo, human", "settings": "five of the six cases with adverse cytogenetics", "source_text": "One hundred and seventy-three patients diagnosed with ALL and younger than 18 years were recruited from Sant Joan de Déu Hospital, Barcelona, Spain and from Cruces Hospital, Barakaldo, Spain between 1996 and 2012. Patients were all from Caucasian descent. […] Samples were extracted when patients were at complete remission or without cytogenetic aberrations affecting chromosomes where the polymorphisms are located. Clinical data were collected at diagnosis, including sex, age, leukemia type (T-cell, B-cell or mixed), WBC count, cytogenetic risk group and treatment protocol (Table 1). The different cytogenetic risk groups were classified according to the criteria from the Spanish Society of Pediatric Hematology and Oncology as follow: Presence of t(9; 22), t(4; 11) or MLL rearrangements at 11q23, or hipodiploidy (<44 chromosomes) was considered adverse group. Presence of 412; 21) or hiperdiploidy (>50 chromosomes) was considered favorable and all other cases were considered to belong to intermediate cytogenetic risk group. […] Every genotype was analyzed separately and moreover, in case of CNVs, null genotypes were tested vs. non-null genotypes, and in case of SNPs, heterozygotes were grouped together with either homozygote genotype.", "data": [{"smiles": "Cc1ccc(NC(=O)c2ccc(CN3CCN(C)CC3)cc2)cc1Nc1nccc(-c2cccnc2)n1", "note": "[imatinib]", "values": [{"measurement": "treatment outcome", "result": "successful"}]}]}
